Laboratory results: PubChem BioAssay AID588709 (The Scripps Research Institute Molecular Screening Center, 2011)
Where “and” joins values, the source holds several entries; their conditions need not be identical. Identical values can stand only once. Calls of active or inactive are those of the source. The rule behind the calls is not given here.

Test system: HEK293 cytotoxicity, ATP luminescence
Assay: cytotoxicity in HEK cells, dose response, counter-screen for IDE inhibitor project, cell-based, luminescence (AID 588709)

## Cc1ccc(-c2nc(C(=O)Nc3cccc(C(F)(F)F)c3)cs2)cc1
  IC50: 36.1 µM (inactive)

## O=C(C1CC1)N1CCN(c2ccnc3cc(Cl)ccc23)CC1
  IC50: > 71.5 µM (inactive)

## Cc1cccc(-c2nnc(SCc3nc4ccccc4[nH]3)n2Cc2ccco2)c1
  IC50: 34.8 µM (inactive) and 32.7 µM (inactive)

## O=C(Nc1cccc(C(F)(F)F)c1)c1csc(Cc2cccc(C(F)(F)F)c2)n1
  IC50: 29.5 µM (inactive)

## Clc1cccc(-c2nnc(SCc3nc4ccccc4[nH]3)n2-c2ccccc2)c1
  IC50: 31.2 µM (inactive)

## CCN(CC)c1ccc(/C=C2\C(=N)N3N=C(CC(=O)N4CCOCC4)SC3=NC2=O)cc1
  IC50: > 71.5 µM (inactive)

## Nc1c(C(=O)Nc2nccs2)sc2nc(-c3cccs3)cc(C(F)(F)F)c12
  IC50: 9.06 µM

## O=C(Nc1cccc(C(F)(F)F)c1)c1csc(-c2ccccc2)n1
  IC50: 33.3 µM (inactive)

## Cc1ccc(NC(=O)CSc2nnc(-c3cccc(Cl)c3)n2Cc2ccco2)c(C)c1
  IC50: 35.6 µM (inactive)

## COc1ccc(C(=O)N2CCN(C(=O)C3COc4ccccc4O3)CC2)cc1OC (stereo unspecified)
  IC50: > 71.5 µM (inactive)

## O=C(CSc1nnc(-c2cccc(Cl)c2)n1Cc1ccco1)Nc1ccc2cn[nH]c2c1
  IC50: > 71.5 µM (inactive)

## Cc1c(CCC(=O)NCCCn2ccnc2)c(=O)oc2cc3oc4c(c3cc12)CCCC4
  IC50: 21.4 µM (inactive)

## Cn1c(SCc2nc3ccccc3[nH]2)nnc1-c1cccc(Cl)c1
  IC50: > 71.5 µM (inactive)

## O=C(Nc1cc(C(F)(F)F)cc(C(F)(F)F)c1)c1csc(-c2ccncc2)n1
  IC50: > 71.5 µM (inactive)

## O=C(CSc1nnc(-c2cccc(Cl)c2)n1Cc1ccco1)Nc1ccc2c(c1)OCCO2
  IC50: 29.7 µM (inactive)

## O=C(CSc1nnc(-c2cccc(Cl)c2)n1Cc1ccco1)Nc1ccccc1C(F)(F)F
  IC50: 30.9 µM (inactive)

## COc1cc(/C=C2\SC(=S)N(NC(C)=O)C2=O)ccc1OC(=O)c1ccco1
  IC50: > 71.5 µM (inactive)

## O=C(Nc1ccc2oc(-c3cccnc3)nc2c1)c1ccc2c(c1)OCCO2
  IC50: > 71.5 µM (inactive)

## COc1cccc(-c2nnc(SCc3nc4ccccc4[nH]3)n2Cc2ccco2)c1
  IC50: 36.5 µM (inactive)

## Cc1nc(-c2cccnc2)sc1C(=O)Nc1cccc(C(F)(F)F)c1
  IC50: 15.8 µM (inactive)

## CCOc1ccc2[nH]c3c(N4CCN(C(=O)c5ccco5)CC4)ncnc3c2c1
  IC50: 21.1 µM (inactive)

## O=C(CSc1nnc(-c2cccc(Cl)c2)n1Cc1ccco1)c1ccc2ccccc2c1
  IC50: 30.7 µM (inactive)

## Cn1c(=O)c(C(=O)CN2CCCc3ccccc32)c(N)n(Cc2ccccc2)c1=O
  IC50: 30.1 µM (inactive)

## Clc1cccc(-c2nnc(SCc3nc4ccccc4[nH]3)n2Cc2ccco2)c1
  IC50: 23.3 µM (inactive)

## CC(Sc1nnc(-c2cccnc2)n1-c1ccccc1F)C(=O)N1CCCc2ccccc21 (stereo unspecified)
  IC50: 32.1 µM (inactive)

## O=C(Nc1cccc(C(F)(F)F)c1)c1csc(-c2ccncc2)n1
  IC50: 24.1 µM (inactive)

## COc1ccc(-c2nc(C(=O)Nc3cccc(C(F)(F)F)c3)cs2)cc1
  IC50: 67.8 µM (inactive)

## O=C(Nc1cccc(C(F)(F)F)c1)c1csc(-c2cccc(C(F)(F)F)c2)n1
  IC50: 55.9 µM (inactive)

## Cc1ccc(C)c(N2C(=N)S/C(=C\c3ccc(-c4ccccc4C(=O)O)o3)C2=O)c1
  IC50: > 71.5 µM (inactive)

## O=c1c2ccccc2sn1-c1cc(S(=O)(=O)N2CCOCC2)ccc1N1CCOCC1
  IC50: 9.61 µM

## COc1ccc(NC(=O)CSc2nnc(CN3CCOCC3)n2C)cc1Cl
  IC50: > 71.5 µM (inactive)
